Here are results for 15 compounds from ChEMBL document CHEMBL5728996 (2022).

As a reminder, the pIC50 is the negative decadic logarithm of the IC50, by convention in mol/L. A high value points to a low IC50.

pIC50: −log10 of the molar value. Bounds are passed on as bounds.

In one assay the target is T1, Adenosine receptor A1 (Homo sapiens, UniProt P30542).
T1 sequence (P30542 whole entry): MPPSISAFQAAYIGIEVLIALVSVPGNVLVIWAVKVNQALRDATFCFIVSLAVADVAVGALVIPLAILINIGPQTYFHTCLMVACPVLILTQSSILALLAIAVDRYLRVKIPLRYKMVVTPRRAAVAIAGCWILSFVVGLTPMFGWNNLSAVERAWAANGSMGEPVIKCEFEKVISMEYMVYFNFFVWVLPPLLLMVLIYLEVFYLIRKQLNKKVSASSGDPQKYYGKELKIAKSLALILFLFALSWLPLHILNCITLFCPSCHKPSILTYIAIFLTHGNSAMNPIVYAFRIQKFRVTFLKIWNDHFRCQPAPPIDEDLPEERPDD
Description: (§1) Activity Assay: Compounds (Adenosine Receptor modulators) and activity assay.

The target of a further assay is T2, Adenosine receptor A2b (Homo sapiens, UniProt P29275).
T2 sequence (P29275 whole entry): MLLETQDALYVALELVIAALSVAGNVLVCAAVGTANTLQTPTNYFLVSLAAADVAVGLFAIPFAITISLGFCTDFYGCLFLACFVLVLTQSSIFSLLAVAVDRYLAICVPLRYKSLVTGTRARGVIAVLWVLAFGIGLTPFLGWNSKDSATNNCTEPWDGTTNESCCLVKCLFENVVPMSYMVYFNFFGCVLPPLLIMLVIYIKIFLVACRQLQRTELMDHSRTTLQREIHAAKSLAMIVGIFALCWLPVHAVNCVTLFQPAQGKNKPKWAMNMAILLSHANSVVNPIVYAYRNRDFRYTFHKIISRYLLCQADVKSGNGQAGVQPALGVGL
The description is as §1.

The target in another assay is T3, Adenosine receptor A3 (Homo sapiens, UniProt P0DMS8).
T3 sequence (P0DMS8 whole entry): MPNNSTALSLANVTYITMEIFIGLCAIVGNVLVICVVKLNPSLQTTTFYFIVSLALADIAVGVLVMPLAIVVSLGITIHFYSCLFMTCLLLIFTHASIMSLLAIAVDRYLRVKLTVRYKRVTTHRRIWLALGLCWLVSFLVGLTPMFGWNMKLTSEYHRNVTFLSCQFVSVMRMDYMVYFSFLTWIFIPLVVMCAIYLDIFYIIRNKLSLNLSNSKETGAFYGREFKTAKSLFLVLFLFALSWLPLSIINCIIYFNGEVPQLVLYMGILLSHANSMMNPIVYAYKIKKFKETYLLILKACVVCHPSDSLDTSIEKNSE
Described as §1.

Another assay has as its target Adenosine receptor A2a (Homo sapiens, UniProt P29274). The description is as §1. It counts as single protein.

Sequence of Adenosine receptor A2a (P29274 whole entry): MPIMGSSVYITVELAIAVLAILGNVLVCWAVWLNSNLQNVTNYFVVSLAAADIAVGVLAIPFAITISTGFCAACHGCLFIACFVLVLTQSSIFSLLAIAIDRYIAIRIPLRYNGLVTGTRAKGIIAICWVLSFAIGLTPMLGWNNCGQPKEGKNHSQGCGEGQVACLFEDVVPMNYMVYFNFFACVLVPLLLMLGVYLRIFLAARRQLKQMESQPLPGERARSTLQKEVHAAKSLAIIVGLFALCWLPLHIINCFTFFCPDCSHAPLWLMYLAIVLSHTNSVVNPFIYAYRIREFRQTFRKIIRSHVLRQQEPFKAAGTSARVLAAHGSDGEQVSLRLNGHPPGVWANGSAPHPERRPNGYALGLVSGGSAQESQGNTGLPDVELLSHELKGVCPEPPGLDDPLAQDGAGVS

For `C[C@H](Nc1nc(C(=O)N[C@H]2CC[C@@H](O)C2)c2sccc2n1)c1ccccn1`, the pIC50 on Adenosine receptor A1 is below 6.30; against Adenosine receptor A2b, above 8.00; on Adenosine receptor A3, below 6.30.
Regarding `O=C(c1nc(NCc2ccc(F)cn2)nc2ccsc12)N1CC[C@H](O)C1`, the pIC50 against Adenosine receptor A2b and at Adenosine receptor A2a was below 6.30 each time.
In turn, `C[C@H](Nc1nc(C(=O)N2CC[C@@H](S(C)(=O)=O)C2)c2sccc2n1)c1ccccn1` had a pIC50 on Adenosine receptor A2a below 6.30.
In the case of `COCCN1CCC(CNC(=O)c2nc(N[C@@H](C)c3ccccn3)nc3ccsc23)CC1`, the pIC50 against Adenosine receptor A2b and at Adenosine receptor A2a was below 6.30 in each case.
`COc1ccc(CNC(=O)c2nc(NCc3cncc(F)c3)nc3ccsc23)cn1`: the pIC50 on Adenosine receptor A1 and at Adenosine receptor A3 was below 6.30 each time.
Take `C[C@H](Nc1nc(C(=O)N2CC(CN)C2)c2sccc2n1)c1cncc(F)c1`: the pIC50 on Adenosine receptor A1, on Adenosine receptor A3 and at Adenosine receptor A2a was below 6.30 throughout.
The compound `CCC(Nc1nc(C(=O)NCc2ccc(OC)nc2)c2sccc2n1)c1cccnc1` (configuration not stated) showed a pIC50 on Adenosine receptor A2b below 6.30.
As for `C[C@H](Nc1nc(C(=O)N2CC(N)C2)c2sccc2n1)c1cncc(F)c1`, the pIC50 against Adenosine receptor A1, at Adenosine receptor A3 and on Adenosine receptor A2a was below 6.30 each time.
Take `CC(C)(C)OC(=O)N1CCC[C@@H]1CNC(=O)c1nc(NCc2cncc(F)c2)nc2ccsc12`: the pIC50 against Adenosine receptor A2b and on Adenosine receptor A2a was below 6.30 throughout.
In the case of `CC(=O)Nc1ccc(CCNC(=O)c2nc(N[C@@H](C)c3cncc(F)c3)nc3ccsc23)cc1`, the pIC50 at Adenosine receptor A1, at Adenosine receptor A3 and at Adenosine receptor A2a was below 6.30 throughout.
On to `C[C@H](Nc1nc(C(=O)NCCO)c2sccc2n1)c1cccnc1`, for which the negative logarithm of the IC50 (pIC50) at Adenosine receptor A1 and against Adenosine receptor A3 was below 6.30 in each case.
The compound `C[C@H](Nc1nc(C(=O)NCCc2ccccc2O)c2sccc2n1)c1cncc(F)c1` showed a pIC50 against Adenosine receptor A2b above 8.00.
As for `CC(=O)Nc1ccc(CCNC(=O)c2nc(N[C@@H](C)c3cccnc3)nc3cc(C)sc23)cc1`, the pIC50 on Adenosine receptor A1 and against Adenosine receptor A2a was below 6.30 each time.
As for `O=C(c1nc(NCc2cncc(F)c2)nc2ccsc12)N1CCCC1`, the pIC50 on Adenosine receptor A1 is below 6.30; against Adenosine receptor A2b, above 8.00; on Adenosine receptor A3, below 6.30.
On to `C[C@H](Nc1nc(C(=O)N2CC[C@@H](NC(=O)OC(C)(C)C)C2)c2sccc2n1)c1ccccn1`, for which the pIC50 on Adenosine receptor A1 and on Adenosine receptor A3 was below 6.30 in each case.
